This is an account of results in patent US20220048915A1 (SHANGHAI PHARMACEUTICALS HOLDING CO., LTD., priority 2018, published 2022).

pIC50: −log10 of the molar value. Values joined by “and” are separate entries in the source; they are usually repeats but may differ in a detail not shown here. Equal values may be shown once.

The target of series [1] is p38α (Homo sapiens, UniProt Q16539). Nature of the series: In vitro inhibition of p38 kinase (LANCE Ultra TR-FRET). The following applies: read-out: Kinase in vitro IC50(nM) p38α. The format is biochemical.
Chain of p38α (Q16539 whole entry): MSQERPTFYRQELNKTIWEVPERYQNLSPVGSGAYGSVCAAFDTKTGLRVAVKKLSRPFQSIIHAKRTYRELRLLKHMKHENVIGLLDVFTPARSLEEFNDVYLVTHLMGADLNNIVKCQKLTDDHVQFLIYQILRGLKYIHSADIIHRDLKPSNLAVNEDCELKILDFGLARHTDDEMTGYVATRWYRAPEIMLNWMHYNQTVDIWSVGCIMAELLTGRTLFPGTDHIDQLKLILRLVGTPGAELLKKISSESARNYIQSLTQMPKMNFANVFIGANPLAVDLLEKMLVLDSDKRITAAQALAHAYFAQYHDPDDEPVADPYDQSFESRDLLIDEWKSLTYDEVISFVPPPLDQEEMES
Series [2] deals with p38β (Homo sapiens, UniProt Q15759). The series is described as above. The following applies: read-out: Kinase in vitro IC50(nM) p38β. The format is biochemical.
Chain of p38β (Q15759 whole entry): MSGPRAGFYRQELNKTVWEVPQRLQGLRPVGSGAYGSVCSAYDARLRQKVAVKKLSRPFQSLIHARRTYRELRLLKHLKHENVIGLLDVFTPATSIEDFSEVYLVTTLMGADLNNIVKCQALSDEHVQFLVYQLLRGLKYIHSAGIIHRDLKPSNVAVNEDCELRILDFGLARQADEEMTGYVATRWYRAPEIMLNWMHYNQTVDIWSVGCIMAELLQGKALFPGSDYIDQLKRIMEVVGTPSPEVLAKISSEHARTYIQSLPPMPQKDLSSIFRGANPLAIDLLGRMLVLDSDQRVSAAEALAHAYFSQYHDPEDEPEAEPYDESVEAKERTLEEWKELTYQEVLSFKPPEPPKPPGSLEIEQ
The target in series [3] is T1, p38γ (Homo sapiens, UniProt P53778).
T1 sequence (P53778 1-367): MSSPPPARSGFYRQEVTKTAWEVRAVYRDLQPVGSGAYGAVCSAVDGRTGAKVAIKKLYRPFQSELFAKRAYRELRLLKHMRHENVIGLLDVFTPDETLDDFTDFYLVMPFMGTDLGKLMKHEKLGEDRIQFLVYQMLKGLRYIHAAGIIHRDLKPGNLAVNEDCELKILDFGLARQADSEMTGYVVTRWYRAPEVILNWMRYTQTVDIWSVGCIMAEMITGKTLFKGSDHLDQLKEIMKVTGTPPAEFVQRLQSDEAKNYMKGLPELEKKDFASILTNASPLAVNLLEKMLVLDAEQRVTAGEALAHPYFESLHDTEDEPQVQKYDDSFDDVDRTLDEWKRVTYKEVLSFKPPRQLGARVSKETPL
The description is as above. The format is biochemical. Conditions: read-out: Kinase in vitro IC50(nM) p38γ.

The subject of series [4] is BV-2 cells. Nature of the series: Inhibition of inflammation in LPS-stimulated BV-2 cells (ELISA of inflammatory factors). The format is cell-based. The following applies: Mus musculus, 100 ng/mL LPS 4 hours; for Emax: read-out: BV-2 Max Inh. (%); for pIC50: read-out: BV-2 Rf IC50. Here is the method:
Normal cultured 8th passage BV-2 cells were taken, and inoculated separately in 96-well plates at a certain cell density. The cell culture plates were cultured at 37° C. and 5% CO2 for 24 hours.
After inoculating the plate for 24 hours, the cell culture medium was removed, and then 100 μL of a 4-fold gradient dilution compound starting from 10,000 nM prepared in DMEM+10% FBS, where High control and Low control contained 0.1% DMSO without compound. With 100 μL per well, the cell culture plate was cultured at 37° C. with 5% CO2 for one hour.
The compound-containing cultures were removed. 100 ng/mL of LPS was prepared with DMEM+10% FBS culture medium, and then the compound was diluted in a 4-fold gradient from 10,000 nM with LPS-containing culture medium. In low control, the compound was replaced with 0.1% DMSO. In High control, 0.1% DMSO was prepared with culture medium without LPS. 100 μL per well, and the cell culture plates were cultured at 37° C. with 5% CO2 for 4 hours.
After 4 hours of LPS stimulation, 110 μL of the culture solution was aspirated, and centrifuged at 2000 rpm for 2 minutes. A further 90 μl of supernatant was aspirated and immediately put into −20° C. for freezing.
ELISA kits were used to detect the expression of inflammatory factors such as IL-10, TNFα, etc. The OD450 signal values were measured by microplate reader. The in vitro inhibitory activity of the compounds was calculated according to the following formula: Inhibition rate: Inhibition rate (%)=(signal value of control−signal value of administration)/(high signal value of control−low signal value of control)×100%. And according to the inhibition rate of each concentration, Graphpad Prism 5.0 was used to curve fit the […] signal values at each concentration and calculate the corresponding IC50, which is shown in Table 1.
Background: An ELISA detects its analyte on a solid surface through an enzyme-linked reagent.

Series [5] is described as follows: Pharmacokinetic properties in rats. The format is in vivo, SD rats. The following applies: for Cmax / MRT / Tmax / AUClast (po): po 6 mg/kg; for BA: po 6 mg/kg vs iv 3 mg/kg; for AUClast (po): 5-1440 minutes. The procedure:
Ten male SD rats, weighing 180-220 g (provided by Shanghai Xipuerbikai Laboratory Animal Co., Ltd, Certificate No.: 20130016008116). The rats were fasted for feed for 12-16 hours before the experiment but water was allowed.
Blood samples were collected from the fundus vein of rats before and at 2, 5, 15, 30, 60, 90, 120, 240, 360, 480, 600 and 1440 minutes after administration, respectively.
Blood samples were collected from the fundus vein of rats before and at 5, 15, 30, 60, 90, 120, 240, 360, 480, 600, 1440 minutes after administration respectively.
(§1) Blood samples were centrifuged at 8000 rpm for 5 minutes, and supernatant plasma was taken. To 50 μL of plasma samples was added 300 μL of acetonitrile containing internal standard (propranolol, 25 ng/mL) to precipitate the protein. After vortexing for 10 minutes and centrifuging at 6000 g and 4° C. for 10 minutes, the supernatant was taken and placed in a 96-well plate for determination of drug concentration in plasma by UPLC/MS-MS.

Series [6] can be described thus: Pharmacokinetic properties in mice. The format is in vivo, ICR mice. The following applies: for Cmax / MRT / Tmax / AUClast (po): po 10 mg/kg; for BA: po 10 mg/kg vs iv 3 mg/kg; for AUClast (po): 5-1440 minutes. Here is the method:
Forty-eight male ICR mice, weighing 18-22 g (provided by Shanghai Xipuerbikai Laboratory Animal Co., Ltd, Certificate No.: 20130016008116). The mice were […] for 12-16 hours before the experiment but water was allowed.
Blood samples were collected from the fundus vein of mice before and at 2, 5, 15, 30, 60, 90, 120, 240, 480, 600, and 1440 minutes of the administration, respectively.
Blood samples were collected from the fundus vein of mice before and at 5, 15, 30, 60, 90, 120, 240, 480 and 1440 minutes of administration, respectively.
2-3 time points were taken for each mouse. The mice were sacrificed at 5, 15, 30, 60 and 1440 minutes after the administration (3 mice per time point), and the brains were taken, rinsed with saline, dried on filter paper and weighed.
as §1

Series [7] deals with TNF-α. The series is described as follows: Lipopolysaccharide (LPS)-induced inflammation model in mice, TNF-α in serum by ELISA. The format is in vivo, C57BL/6J mice. The procedure:
Male SPF-grade C57BL/6J mice, 6-8 weeks old, provided by Shanghai Ling Chang Biotechnology Co., Ltd. Animals were housed in clean-grade plastic cages (light and dark cycle 12/12 hours, temperature 22±2° C., humidity 50±10%, pellet feed, free drinking water).
1. Mice were weighed and administered according to an administration volume of 10 mL/kg, and oral administration by gavage was given for the first time. Each mouse was administrated at an interval of 3 minutes.
2. One hour after the first administration, LPS 5 mpk was administered intraperitoneally at an administration volume of 10 mL/kg.
3. 4 hours after the first administration, a second oral administration by gavage was given according to the administration volume of 10 mL/kg.
4. 6 hours after LPS intraperitoneal injection, mice were sacrificed, serum and cerebral cortex and hippocampus were sampled. After weighing the wet weight and they were put into liquid nitrogen for quick-freezing and storage.

The target of series [8] is p38 kinase. The following applies: CN108349964A, Table 7 on page 74; read-out: IC50 grade for the inhibitory activity of p38 kinase; cited from earlier work.

In the case of `O=c1ncn2nc(Oc3cc(F)c(F)cc3F)ccc2c1-c1c(Cl)cccc1Cl` [Compound I-43], the IC50 (as a rule, the point on the concentration scale where inhibition reaches its midpoint) in series [1] was 10.7 nM; in series [2], 95.1 nM; in series [3], above 3330 nM. Also, in series [4], the Emax was 50.9%. Further, the negative-log IC50 (pIC50) (in general, the IC50 on a negative log10 scale, so that one unit is a factor of ten) in series [4] was 7.67. Besides, the Cmax (in general, the highest concentration seen after dosing) in series [5] (male, SD, plasma, rat) is 601 ng/mL; in series [6] (male, ICR, mouse, plasma), 1280 ng/mL. Also, the MRT – broadly, a mean duration of stay, worked out from the concentration-time curve – in series [5] (male, SD, plasma, rat) was 4.7 h; in series [6] (male, ICR, mouse, plasma), 4.34 h. Also, the Tmax (as a rule, the time at which the peak concentration occurs) was 4 h in series [5] (male, SD, plasma, rat) and 2 h in series [6] (male, ICR, mouse, plasma). For the same compound, the “Thalf (iv)” value in series [5] (rat, iv 3 mg/kg) is given as 3.7 h; in series [6] (iv 3 mg/kg), 2.97 h. The BA was 123.3% in series [5] (rat) and 89.17% in series [6]. The “AUClast (po)” value is on record as 2994 (h)*(ng/mL) in series [5] (rat) and 6540 (h)*(ng/mL) in series [6]. Besides, the “absorption compared with the positive compound VX-745 at the same dose” value is recorded as “better” in series [5] (rats, 6 mg/kg) and “better” in series [6] (10 mg/kg).
In the case of `O=c1ncn2nc(Sc3ccc(F)cc3F)ccc2c1-c1c(Cl)cccc1Cl` [VX-745, reference compound], the Emax in series [4] was 99.7%. In addition, in series [4], the pIC50 is 8.37. The clearance (usually the rate of elimination divided by the concentration) in series [5] (male, SD, plasma, rat, iv 3 mg/kg) is 25 mL/min/kg; in series [6] (male, ICR, mouse, plasma, iv 3 mg/kg), 18.3 mL/min/kg. Besides, the Vd in series [5] (male, SD, plasma, rat, iv 3 mg/kg, read-out: Vss (iv)) turned out to be 4.5 L/kg; in series [6] (male, ICR, mouse, plasma, iv 3 mg/kg, read-out: Vss (iv)), 2.3 L/kg. Besides, the Cmax turned out to be 476 ng/mL in series [5] (male, SD, plasma, rat) and 750 ng/mL in series [6] (male, ICR, mouse, plasma). Also, the MRT in series [5] (male, SD, plasma, rat) amounted to 4.3 h; in series [6] (male, ICR, mouse, plasma), 3.2 h. The Tmax turned out to be 0.8 h in series [5] (male, SD, plasma, rat) and 0.8 h in series [6] (male, ICR, mouse, plasma). Moreover, the “Thalf (iv)” value in series [5] (rat, iv 3 mg/kg) was found to be 5.2 h; in series [6] (iv 3 mg/kg), 3.9 h. Further, the BA in series [5] (rat) amounted to 41.2%; in series [6] it was 20.2%. The results for the “AUClast (po)” value in series [5] (rat) and in series [6] were 1644.5 (h)*(ng/mL) and 1844 (h)*(ng/mL), respectively. For the same compound, in series [7] (8 mpk, P<0.01), the “levels of TNF-α compared with the mouse inflammation model group (G2)” value is given as “significantly reduced”. Further, the TNF-α conc. in series [7] (serum, individual animals, 8 mg/kg po bid interval 4 h, 6 hours after LPS 5 mpk ip) is 142.0 pg/mL and 151.7 pg/mL and 105.5 pg/mL and 155.5 pg/mL and 55.4 pg/mL and 105.7 pg/mL and 54.3 pg/mL and 71.2 pg/mL and 24.0 pg/mL and 155.2 pg/mL.
Regarding `O=c1ncn2nc(Sc3ccc(F)cc3)ccc2c1-c1c(Cl)cccc1Cl` [compound 12], the negative-log IC50 (pIC50) in series [8] is 6.00 to 7.00.
